# From patent US20230233569A1 (Revolution Medicines, Inc., priority 2020, published 2023)
# Where two headings read alike, the source gives them in different places.
# Assays:
# NCI-H358 (K-Ras G12C) = assay: CellTiter-Glo cell viability assay, 5-day treatment; format: cell-based; conditions: Homo sapiens
# Protocol: Protocol: CellTiter-Glo® Cell Viability Assay
# Note—The following protocol describes a procedure for monitoring cell viability of K-Ras mutant cancer cell lines in response to a compound of the invention. Other RAS isoforms may be employed, though the number of cells to be seeded will vary based on cell line used.
# (§1) Test compounds (132.5 nL) were directly dispensed into the assay plates containing cells. […] On day 5, assay plates and their contents were equilibrated to room temperature for approximately 30 minutes. […] Luminescence was measured using the PerkinElmer Enspire. Data were normalized by the following: (Sample signal/Avg. DMSO)*100. The data were fit using a four-parameter logistic fit.
# as §1, with “nl)” for “nL)”
# NRAS G12C = NRAS G12C (Homo sapiens, UniProt P01111+P62937, G12C); assay: Disruption of BRAF RBD interaction with Ras (FRET / MOA assay, with Cyclophilin A); format: biochemical; conditions: NRAS G12C; read-out: NRAS G12C FRET data IC50
# Source text: (§2) This protocol may also be executed substituting other Ras proteins or nucleotides.
# (§3) The purpose of this biochemical assay was to measure the ability of test compounds to facilitate ternary complex formation between a nucleotide-loaded K-Ras isoform and Cyclophilin A; the resulting ternary complex disrupts binding to a BRAF^RBD construct, inhibiting K-Ras signaling through a RAF effector. Data is reported as IC50 values.
# (§4) Compound was present in plate wells as a 10-point 3-fold dilution series starting at a final concentration of 30 μM. After incubation at 25° C. for 3 hours, a mixture of Anti-His Eu-W1024 and anti-GST allophycocyanin was then added to assay sample wells at final concentrations of 10 nM and 50 nM, respectively, and the reaction incubated for an additional 1.5 hours. […] Compounds that facilitate disruption of a K-Ras:RAF complex were identified as those eliciting a decrease in the TR-FRET ratio relative to DMSO control wells.
# as §3, with “BRAF^RBDD” for “BRAF^RBD”
# KRAS G12C = KRAS G12C (Homo sapiens, UniProt P01116+P62937, G12C); assay: as above; format: biochemical; conditions: KRAS G12C FRET data, IC50
# Source text: as §2, §3, §4
# as §3, with “BRAF^RBDD” for “BRAF^RBD”
# KRAS G12D = KRAS G12D (Homo sapiens, UniProt P01116+P62937, G12D); assay: as above; format: biochemical; conditions: KRAS G12D FRET data, IC50
# Source text: as §2, §3, §4
# as §3, with “BRAF^RBDD” for “BRAF^RBD”
# KRAS G12S = KRAS G12S (Homo sapiens, UniProt P01116+P62937, G12S); assay: as above; format: biochemical; conditions: KRAS G12S FRET data, IC50
# Source text: as §2, §3, §4
# as §3, with “BRAF^RBDD” for “BRAF^RBD”
# KRAS G12V = KRAS G12V (Homo sapiens, UniProt P01116+P62937, G12V); assay: as above; format: biochemical; conditions: KRAS G12V FRET data IC50, KRAS G12V
# Source text: as §2, §3, §4
# as §3, with “BRAF^RBDD” for “BRAF^RBD”
# KRAS G13C = KRAS G13C (Homo sapiens, UniProt P01116+P62937, G13C); assay: as above; format: biochemical; conditions: KRAS G13C FRET data, IC50
# Source text: as §2, §3, §4
# as §3, with “BRAF^RBDD” for “BRAF^RBD”
# KRAS G13D = KRAS G13D (Homo sapiens, UniProt P01116+P62937, G13D); assay: as above; format: biochemical; conditions: KRAS G13D FRET data IC50, KRAS G13D
# Source text: as §2, §3, §4
# as §3, with “BRAF^RBDD” for “BRAF^RBD”
# KRAS WT = KRAS WT (Homo sapiens, UniProt P01116+P62937); assay: as above; format: biochemical; conditions: KRAS WT FRET data IC50, KRAS WT
# Source text: as §2, §3, §4
# as §3, with “BRAF^RBDD” for “BRAF^RBD”
# [1] = NCI-H358, H358, K-Ras G12C, read-out: Additional H358 Cell Viability assay data (K-Ras G12C, IC50)
# [2] = NCI-H358, 120 h, 5-day treatment, read-out: H358 Cell Viability assay data (K-Ras G12C, IC50)
# Chain of KRAS G12S (P01116 1-169 isoform P01116-2 G12S limits assumed): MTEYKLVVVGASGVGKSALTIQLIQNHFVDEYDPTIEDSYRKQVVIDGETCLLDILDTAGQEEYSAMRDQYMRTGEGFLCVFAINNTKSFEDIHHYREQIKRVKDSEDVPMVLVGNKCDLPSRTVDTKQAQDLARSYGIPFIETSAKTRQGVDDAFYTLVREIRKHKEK
# Chain of KRAS G12S (P62937 whole entry): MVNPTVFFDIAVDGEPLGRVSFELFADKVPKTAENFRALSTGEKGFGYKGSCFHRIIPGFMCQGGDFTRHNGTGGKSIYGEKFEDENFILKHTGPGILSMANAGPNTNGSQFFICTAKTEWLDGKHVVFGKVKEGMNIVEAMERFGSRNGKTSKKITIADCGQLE
# Chain of NRAS G12C (P01111 whole entry G12C): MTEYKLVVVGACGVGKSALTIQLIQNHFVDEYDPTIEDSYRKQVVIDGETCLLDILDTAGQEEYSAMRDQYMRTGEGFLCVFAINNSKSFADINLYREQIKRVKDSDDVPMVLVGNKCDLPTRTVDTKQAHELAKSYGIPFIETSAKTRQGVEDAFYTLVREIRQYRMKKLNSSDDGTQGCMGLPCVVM
# Chain of NRAS G12C (P62937 whole entry): as the sequence (P62937 whole entry) above
# Chain of KRAS G12V (P01116 1-169 isoform P01116-2 G12V limits assumed): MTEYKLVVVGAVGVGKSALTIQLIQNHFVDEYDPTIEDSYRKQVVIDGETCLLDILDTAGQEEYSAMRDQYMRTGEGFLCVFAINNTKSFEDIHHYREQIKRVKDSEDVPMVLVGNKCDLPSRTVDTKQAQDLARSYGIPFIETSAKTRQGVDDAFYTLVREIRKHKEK
# Chain of KRAS G12V (P62937 whole entry): as the sequence (P62937 whole entry) above
# Chain of KRAS G13D (P01116 1-169 isoform P01116-2 G13D limits assumed): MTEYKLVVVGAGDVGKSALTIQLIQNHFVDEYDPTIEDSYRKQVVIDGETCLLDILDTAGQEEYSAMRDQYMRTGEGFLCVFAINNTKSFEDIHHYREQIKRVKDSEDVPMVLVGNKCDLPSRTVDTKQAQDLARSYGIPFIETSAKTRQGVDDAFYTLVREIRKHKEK
# Chain of KRAS G13D (P62937 whole entry): as the sequence (P62937 whole entry) above
# Chain of KRAS WT (P01116 1-169 isoform P01116-2 limits assumed): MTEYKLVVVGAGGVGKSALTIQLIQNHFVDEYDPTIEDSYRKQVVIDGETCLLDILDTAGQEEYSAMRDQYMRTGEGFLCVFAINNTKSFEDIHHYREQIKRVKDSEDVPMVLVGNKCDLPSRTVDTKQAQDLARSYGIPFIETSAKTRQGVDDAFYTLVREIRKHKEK
# Chain of KRAS WT (P62937 whole entry): as the sequence (P62937 whole entry) above
# Chain of KRAS G12C (P01116 1-169 isoform P01116-2 G12C): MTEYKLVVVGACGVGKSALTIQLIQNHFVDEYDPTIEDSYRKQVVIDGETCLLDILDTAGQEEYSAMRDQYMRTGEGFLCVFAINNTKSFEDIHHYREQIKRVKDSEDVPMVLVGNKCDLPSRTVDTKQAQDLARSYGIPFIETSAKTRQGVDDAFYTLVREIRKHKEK
# Chain of KRAS G12C (P62937 whole entry): as the sequence (P62937 whole entry) above
# Chain of KRAS G12D (P01116 1-169 isoform P01116-2 G12D limits assumed): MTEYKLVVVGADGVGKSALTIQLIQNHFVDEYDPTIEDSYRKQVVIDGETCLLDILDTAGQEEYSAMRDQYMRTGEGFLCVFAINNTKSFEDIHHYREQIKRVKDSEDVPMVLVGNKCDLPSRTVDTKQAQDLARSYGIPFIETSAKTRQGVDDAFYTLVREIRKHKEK
# Chain of KRAS G12D (P62937 whole entry): as the sequence (P62937 whole entry) above
# Chain of KRAS G13C (P01116 1-169 isoform P01116-2 G13C): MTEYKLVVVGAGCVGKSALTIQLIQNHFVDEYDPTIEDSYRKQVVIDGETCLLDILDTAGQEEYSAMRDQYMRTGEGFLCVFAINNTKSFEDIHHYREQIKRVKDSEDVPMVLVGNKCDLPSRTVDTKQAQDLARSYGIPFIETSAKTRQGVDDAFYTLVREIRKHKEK
# Chain of KRAS G13C (P62937 whole entry): as the sequence (P62937 whole entry) above
IC50 (NCI-H358 (K-Ras G12C); [1]) [nM],IC50 (NCI-H358 (K-Ras G12C); [2]) [nM],SMILES,other results
< 10,,C=CC(=O)Nc1cnc(C(=O)N(C)[C@H](C(=O)N[C@H]2Cc3cccc(c3)-c3ccc4c(c3)c(c(-c3cccnc3[C@H](C)OC)n4CC)CC(C)(C)COC(=O)[C@@H]3CCCN(N3)C2=O)C(C)C)n1C [Example A525],
100 to 1000,,"C=CC(=O)N1CC[C@H](C(=O)N(C)[C@H](C(=O)N[C@H]2Cc3nc(cs3)-c3ccc4c(n3)c(c(-c3cccnc3[C@H](C)OC)n4CC)CC(C)(C)COC(=O)[C@@H]3CCCN(N3)C2=O)C(C)C)C1 [Example A347, (2S)—N-[(7S,13S)-21-ethyl-20-{2-[(1S)-1-methoxyethyl]pyridin-3-yl}-17,17-dimethyl-8,14-dioxo-15-oxa-4-thia-9,21,25,27,28-pentaazapentacyclo[17.5.2.1^{2,5}.1^{9,13}.0^{22,26}]octacosa-1(25),2,5(25),19,22(26),23-hexaen-7-yl]-3-methy-2-{N-methyl-1-[(3S)-1-(prop-2-enoyl)pyrrolidin-3-yl]formamido}butanamide]",
,10 to 100,CCn1c(-c2cccnc2[C@H](C)OC)c2c3cc(ccc31)-c1cc(O)cc(c1)C[C@H](NC(=O)[C@H](C(C)C)N(C)C(=O)[C@@H]1NC[C@@H]3C[C@@H]31)C(=O)N1CCC[C@H](N1)C(=O)OCC(C)(C)C2 [Example A217],
,10 to 100,CCn1c(-c2cccnc2[C@H](C)OC)c2c3cc(ccc31)-c1cc(O)cc(c1)C[C@H](NC(=O)[C@H](C(C)C)N(C)C(=O)[C@@H]1C[C@@H]1C)C(=O)N1CCC[C@H](N1)C(=O)OCC(C)(C)C2 [Example A223],

# More lines, now with the values behind:
SMILES,IC50 (NCI-H358 (K-Ras G12C); [1]) [nM],IC50 (NCI-H358 (K-Ras G12C); [2]) [nM],other results
C=CC(=O)N1CC[C@H](C(=O)N(C)[C@H](C(=O)N[C@H]2Cc3cc(O)cc(c3)-c3ccc4c(c3)c(c(-c3ccccc3CCOC)n4C(C)(C)C#N)CC(C)(C)COC(=O)[C@@H]3CCCN(N3)C2=O)C(C)C)C1 [Example A34],10 to 100,,
CCn1c(-c2cccnc2COC)c2c3cc(ccc31)-c1cc(C)cc(c1)C[C@H](NC(=O)[C@H](C(C)C)N(C)C(=O)[C@H]1CCN(C(=O)C#CCN(C)C)C1)C(=O)N1CCC[C@H](N1)C(=O)OCC(C)(C)C2 [Example A157],< 10,,
CCn1c(-c2cnccc2COC)c2c3cc(ccc31)-c1cc(O)cc(c1)C[C@H](NC(=O)[C@H](C(C)C)N(C)C(=O)[C@@H]1CCN(C[C@@H](C)O)C1)C(=O)N1CCC[C@H](N1)C(=O)OCC(C)(C)C2 [Example A31],,> 10000,IC50 (NRAS G12C): 100 to 1000 nM
CCn1c(-c2ccccc2CCOC)c2c3cc(ccc31)-c1cc(O)cc(c1)C[C@H](NC(=O)[C@H](C(C)C)N(C)C(=O)CCN)C(=O)N1CCC[C@H](N1)C(=O)OCC(C)(C)C2 [Example A70],,1000 to 10000,IC50 (KRAS G12C): 1000 to 10000 nM; IC50 (KRAS G12D): 1000 to 10000 nM; IC50 (KRAS G12S): 1000 to 10000 nM; IC50 (KRAS G12V): > 10000 nM; IC50 (KRAS G13C): 1000 to 10000 nM; IC50 (KRAS G13D): 1000 to 10000 nM; IC50 (KRAS WT): 1000 to 10000 nM
C=CC(=O)N1CC[C@H](C(=O)N(C)[C@H](C(=O)N[C@H]2Cc3cc(O)cc(c3)-c3ccc4c(c3)c(c(-c3ccncc3COC)n4CC)CC(C)(C)COC(=O)[C@@H]3CCCN(N3)C2=O)C(C)C)C1 [Example A91],< 10,,
"C=CC(=O)N1CC[C@H](C(=O)N(C)[C@H](C(=O)N[C@H]2Cc3cc(O)cc(c3)-c3ccc4c(c3)c(c(-c3cccnc3[C@@H](OC)C3CC3)n4CC)CC(C)(C)COC(=O)[C@@H]3CCCN(N3)C2=O)C(C)C)C1 (atropisomer, axis not shown) [Example A206]",100 to 1000,,
